Blank lines part the entries; values can stand above or below the compound they belong to.
What was measured:
[1] = biological target: T1, Vascular endothelial growth factor receptor 2 (Homo sapiens, UniProt P35968); assay: Inhibition of human recombinant VEGFR-2 by ELISA method
[2] = system: HepG2; assay: Cytotoxicity against human HepG2 cells assessed as cell growth inhibition; assay type: functional, cell-based
[3] = system: MCF7; assay: Cytotoxicity against human MCF7 cells assessed as cell growth inhibition; assay type: functional, cell-based
[4] = Inhibition of tyrosine kinase in human PANC-1 cells; assay type: cell-based
[5] = biological target: T1, Vascular endothelial growth factor receptor 2; assay: Inhibition of human recombinant VEGFR-2 kinase activity using poly(Glu-Tyr) at 4:1 ratio as substrate incubated for […] by ELISA method
[6] = biological target: T1, Vascular endothelial growth factor receptor 2; assay: Inhibition of VEGFR-2 (unknown origin) kinase activity using poly(Glu-Tyr) at 4:1 ratio as substrate in presence of ATP incubated for 1 hr by ELISA
[7] = biological target: T1, Vascular endothelial growth factor receptor 2; assay: Inhibition of human VEGFR-2
[8] = system: HepG2; assay: Anticancer activity against human HepG2 cells assessed as reduction in cell viability measured after 72 hrs by MTT assay; assay type: functional, cell-based; details: HepG2, 72 h
[9] = biological target: T1, Vascular endothelial growth factor receptor 2; assay: Inhibition of VEGFR-2 (unknown origin)
[10] = biological target: T1, Vascular endothelial growth factor receptor 2; assay: Inhibition of human recombinant VEGFR-2
[11] = biological target: T1, Vascular endothelial growth factor receptor 2; assay: Inhibition of VEGFR-2 (unknown origin)
[12] = system: HepG2; assay: Anticancer activity against human HepG2 cells assessed as inhibition of cell growth incubated for 24 hrs by MTT assay; assay type: functional, cell-based; details: HepG2, 24 h
[13] = system: MCF7; assay: Anticancer activity against human MCF7 cells assessed as inhibition of cell growth incubated for 24 hrs by MTT assay; assay type: functional, cell-based; details: MCF7, 24 h
[14] = biological target: T1, Vascular endothelial growth factor receptor 2; assay: Inhibition of VEGFR-2 (978 to 1408 residues) (unknown origin) using pEY (4:1) as substrate for 20 min in the presence of ATP by ELISA method
[15] = biological target: T1, Vascular endothelial growth factor receptor 2; assay: Inhibition of human recombinant VEGFR-2 expressed in Sf21 insect cells incubated for 60 mins by ELISA
[16] = system: MDA-MB-231; assay: Antiproliferative activity against human MDA-MB-231 cells assessed as cell growth inhibition measured after 48 hrs by MTT assay; assay type: functional, cell-based; details: MDA-MB-231, 48 h
[17] = biological target: T1, Vascular endothelial growth factor receptor 2; assay: Inhibition of VEGFR-2 (unknown origin) kinase activity using poly(Glu-Tyr) at 4:1 ratio as substrate in presence of ATP incubated for 5 mins by ELISA method
[18] = biological target: T1, Vascular endothelial growth factor receptor 2; assay: Inhibition of human recombinant VEGFR-2 kinase activity using poly(Glu-Tyr) at 4:1 ratio as substrate incubated for 60 mins by ELISA method
[19] = biological target: T1, Vascular endothelial growth factor receptor 2; assay: Inhibition of recombinant VEGFR-2 (unknown origin)
[20] = biological target: T1, Vascular endothelial growth factor receptor 2; assay: Inhibition of human recombinant VEGFR-2 in the presence of ATP
[21] = biological target: T1, Vascular endothelial growth factor receptor 2; assay: Inhibition of human recombinant VEGFR-2 kinase activity using poly(Glu-Tyr) at 4:1 ratio as substrate incubated for 60 mins by ELISA
[22] = biological target: T1, Vascular endothelial growth factor receptor 2; assay: Inhibition of VEGFR-2 (unknown origin) incubated for […] by ELISA method
[23] = biological target: T1, Vascular endothelial growth factor receptor 2; assay: Inhibition of VEGFR-2 (unknown origin) incubated for 45 mins by ELISA
[24] = biological target: T1, Vascular endothelial growth factor receptor 2; assay: Inhibition of human VEGFR-2 kinase activity using poly(Glu-Tyr) at 4:1 ratio as substrate preincubated for 30 mins followed by compound addition incubated for 1 hrs by ELISA
[25] = biological target: T1, Vascular endothelial growth factor receptor 2; assay: Inhibition of recombinant VEGFR-2 (unknown origin); remark: listed apart in the source
[26] = system: HeLa; assay: Cytotoxicity against human HeLa cells assessed as reduction in cell viability incubated for 24 hrs by MTT assay; assay type: functional, cell-based
[27] = system: A549; assay: Cytotoxicity against human A549 cells assessed as reduction in cell viability incubated for 72 hrs by MTT assay; assay type: functional, cell-based; details: A549, 72 h
[28] = system: MDA-MB-231; assay: Cytotoxicity against human MDA-MB-231 cells assessed as reduction in cell viability incubated for 72 hrs by MTT assay; assay type: functional, cell-based; details: MDA-MB-231, 72 h
[29] = system: HepG2; assay: Antiproliferative activity against human HepG2 cells assessed as reduction in cell viability by MTT assay; assay type: functional, cell-based
[30] = system: PC-3; assay: Antiproliferative activity against human PC-3 cells assessed as inhibition of cell growth incubated for 48 hrs by MTT assay; assay type: functional, cell-based; details: PC-3, 48 h
[31] = system: MCF7; assay: Antiproliferative activity against human MCF7 cells assessed as reduction in cell viability incubated for 24 hrs by MTT assay; assay type: functional, cell-based; details: MCF7, 24 h

T1 sequence (P35968 whole entry): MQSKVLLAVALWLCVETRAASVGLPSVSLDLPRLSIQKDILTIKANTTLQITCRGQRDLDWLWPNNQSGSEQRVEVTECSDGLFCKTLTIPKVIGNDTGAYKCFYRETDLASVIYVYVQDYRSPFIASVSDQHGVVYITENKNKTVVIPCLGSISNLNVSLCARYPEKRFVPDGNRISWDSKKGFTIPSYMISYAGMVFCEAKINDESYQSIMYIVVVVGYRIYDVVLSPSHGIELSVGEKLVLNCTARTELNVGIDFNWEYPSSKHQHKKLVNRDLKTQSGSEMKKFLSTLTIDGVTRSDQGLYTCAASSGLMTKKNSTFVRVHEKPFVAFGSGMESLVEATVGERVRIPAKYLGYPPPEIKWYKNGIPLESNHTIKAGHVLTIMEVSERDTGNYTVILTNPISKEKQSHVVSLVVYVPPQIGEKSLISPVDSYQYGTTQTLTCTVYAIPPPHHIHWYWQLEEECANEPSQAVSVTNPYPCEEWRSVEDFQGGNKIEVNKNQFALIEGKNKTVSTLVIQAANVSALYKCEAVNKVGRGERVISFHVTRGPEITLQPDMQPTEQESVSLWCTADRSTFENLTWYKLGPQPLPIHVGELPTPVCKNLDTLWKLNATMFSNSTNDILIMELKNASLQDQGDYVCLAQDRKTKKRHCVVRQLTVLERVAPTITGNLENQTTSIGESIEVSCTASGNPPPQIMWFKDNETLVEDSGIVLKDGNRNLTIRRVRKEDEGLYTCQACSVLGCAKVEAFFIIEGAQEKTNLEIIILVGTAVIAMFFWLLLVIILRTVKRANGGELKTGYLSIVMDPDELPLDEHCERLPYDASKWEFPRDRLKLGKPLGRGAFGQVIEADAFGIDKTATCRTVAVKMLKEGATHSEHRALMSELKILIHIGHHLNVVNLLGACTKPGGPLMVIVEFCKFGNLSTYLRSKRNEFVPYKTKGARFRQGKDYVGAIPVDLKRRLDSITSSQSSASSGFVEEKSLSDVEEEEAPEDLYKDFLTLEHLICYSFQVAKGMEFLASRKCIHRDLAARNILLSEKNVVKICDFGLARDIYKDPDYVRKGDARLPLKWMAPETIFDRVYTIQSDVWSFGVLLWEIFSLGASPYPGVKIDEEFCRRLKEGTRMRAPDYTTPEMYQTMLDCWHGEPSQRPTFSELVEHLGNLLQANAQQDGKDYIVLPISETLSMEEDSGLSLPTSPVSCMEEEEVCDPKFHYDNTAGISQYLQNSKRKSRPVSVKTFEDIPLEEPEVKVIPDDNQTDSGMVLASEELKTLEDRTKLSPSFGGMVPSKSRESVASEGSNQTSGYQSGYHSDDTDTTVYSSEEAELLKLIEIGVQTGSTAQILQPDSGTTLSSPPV

SMILES: O=C(CSc1nnc2c3nncn3c3ccccc3n12)Nc1ccc(C(=O)Nc2cncs2)cc1
IC50 [1]: 3100 nM

SMILES: Cc1nc2ccccc2n(CC(=O)Nc2ccc(C(=O)NC(C)(C)C)cc2)c1=O
IC50 [2]: 4500 nM | IC50 [3]: 7700 nM

SMILES: N=c1cc(N)nc2sc(NC(=O)c3cccs3)nn12
IC50 [4]: 8.2 nM

SMILES: O=C(/C=C/c1cccc(F)c1)c1ccc(N2CCNCC2)cc1
IC50 [5]: 800 nM

SMILES: N#Cc1c(-c2ccc(Cl)cc2)cc(-c2ccc3ccccc3c2)nc1NN
IC50 [6]: 0.25 nM

SMILES: Fc1ccc(Nc2nnc3c4c(cccc24)NC(=S)N3Cc2ccccc2)cc1
IC50 [7]: 210 nM | IC50 [8]: 220 nM

SMILES: COc1cc2ncnc(Oc3ccc(NC(=O)C4(C(=O)Nc5ccc(F)cc5)CC4)cc3F)c2c2c1OCCO2
IC50 [9]: 3.5 nM

SMILES: COc1cc(-c2cc(-c3ccc4ccccc4c3)nc(NN)c2C#N)ccc1O
IC50 [6]: 0.19 nM

SMILES: N#C/C(=C\c1cccs1)c1nnc(NC(=O)c2ccco2)s1
IC50 [10]: 7.6 nM

SMILES: COc1cc(/C=C/C(=O)c2ccc(N3CCNCC3)cc2)ccc1F
IC50 [5]: 570 nM

SMILES: CCOc1ccc(Nc2nnc3c4c(cccc24)NC(=S)N3Cc2ccccc2)cc1
IC50 [7]: 30 nM

SMILES: O=C(N/N=C/c1ccc(Cl)cc1)c1ccc(Nc2ncnc3sc4c(c23)CCCC4)cc1
IC50 [11]: 230 nM

SMILES: COc1ccc(NC(=O)c2ccc(NC(=O)CSc3nnc4c5nncn5c5ccccc5n34)cc2)cc1
IC50 [1]: 3200 nM | IC50 [12]: 3300 nM | IC50 [13]: 4400 nM

SMILES: COC(C)Oc1cc2ncnc(Oc3ccc(NC(=O)C4(C(=O)Nc5ccc(F)cc5)CC4)cc3F)c2c2c1OCCO2 (stereo not given)
IC50 [9]: 3.6 nM

SMILES: N#Cc1c(-c2ccc([N+](=O)[O-])cc2)cc(-c2ccc3ccccc3c2)nc1NN
IC50 [6]: 0.34 nM

SMILES: CC(=O)N1N=C(C2CCCO2)CC1c1cn(-c2ccccc2)nc1-c1cccc([N+](=O)[O-])c1 (stereo not given)
IC50 [14]: 220 nM

SMILES: COc1cc(/C=C2\CCCn3c2nc2c(cnn2C)c3=O)cc(OC)c1OC
IC50 [15]: 13.2 nM | IC50 [16]: 14.2 nM

SMILES: COc1cc(C2NC(SCC(=O)Nc3ccc(C(C)=O)cc3)=NC(=O)C2C#N)cc(OC)c1OC (stereo not given)
IC50 [18]: 199 nM

SMILES: COc1ccc(C2=Nn3c(N/N=C4\C(=O)Nc5ccc(F)cc54)nnc3SC2)cc1
IC50 [19]: 435 nM

SMILES: NC(=O)CCn1cc(-c2ccc3ncnc(Nc4cc(O)ccc4F)c3c2)nn1
IC50 [20]: 12 nM

SMILES: O=C(NC1=NN2C(=O)/C(=C\c3ccco3)N=C2S1)c1cccs1
IC50 [4]: 9.4 nM

SMILES: COC(C)Oc1cc2ncnc(Oc3ccc(NC(=O)C4(C(=O)Nc5ccc(F)cc5)CC4)cc3)c2c2c1OCCO2 (stereo not given)
IC50 [9]: 8.8 nM

SMILES: O=[N+]([O-])c1cccc(-c2nn(-c3ccccc3)cc2C2CC(C3CCCO3)=NN2c2ccccc2)c1 (stereo not given)
IC50 [14]: 910 nM

SMILES: Cc1ccc(S(=O)(=O)Nc2ccc(-c3cc(-c4cccc(F)c4)c(C#N)c(N)n3)cc2)cc1
IC50 [24]: 3620 nM

SMILES: N#CCc1nnc(NC(=O)c2ccco2)s1
IC50 [10]: 7.4 nM

SMILES: CC1=NN(c2ccc([N+](=O)[O-])cc2[N+](=O)[O-])C(=O)/C1=C\c1cn(-c2ccccc2)nc1-c1cccc([N+](=O)[O-])c1
IC50 [14]: 820 nM

SMILES: CCOC(=O)CSc1nc2ccc(C)cc2c(=O)n1-c1ccc(F)cc1
IC50 [26]: 1260 nM | IC50 [27]: 570 nM | IC50 [28]: 1190 nM

SMILES: NC(=O)CCn1cc(-c2ccc3ncnc(Nc4ccc(F)c(O)c4)c3c2)nn1
IC50 [20]: 64 nM

Other lines, results leading:

IC50 [17]: 1090 nM
SMILES: Cc1nc2ccccc2n(CC(=O)Nc2ccc(C(=O)NCc3ccccc3)cc2)c1=O

IC50 [11]: 360 nM
SMILES: C/C(=N\NC(=O)c1ccc(Nc2ncnc3sc4c(c23)CCCC4)cc1)c1ccccc1

IC50 [21]: 280 nM
SMILES: O=C(CN1C(=O)S/C(=C/c2ccccc2)C1=O)Nc1ccc(C(=O)NCc2ccccc2)cc1

IC50 [22]: 4800 nM
SMILES: O=C(CSc1nc2ccc([N+](=O)[O-])cc2c(=O)n1-c1ccccc1)NNC(=O)c1ccccc1

IC50 [23]: 240 nM
SMILES: COc1cccc(CNC(=O)CSc2nc3ccccc3c(=O)n2-c2ccc(S(N)(=O)=O)cc2)c1OC

IC50 [23]: 480 nM
SMILES: Cc1ccc(C)c(NC(=O)CSc2nc3ccccc3c(=O)n2-c2ccc(S(N)(=O)=O)cc2)c1

IC50 [18]: 386 nM
SMILES: CC(=O)c1ccc(NC(=O)CSC2=NC(=O)C(C#N)C(c3ccccc3)N2)cc1 (stereo not given)

IC50 [25]: 80 nM
SMILES: O=C(CCSc1nc2ccccc2o1)Nc1ccc(S(=O)(=O)NC(=O)NC2CCCCC2)cc1

IC50 [17]: 1190 nM
SMILES: Cc1nc2ccccc2n(CC(=O)Nc2ccc(C(=O)NNC(=O)c3ccccc3O)cc2)c1=O

IC50 [22]: 4600 nM | IC50 [29]: 17200 nM | IC50 [30]: 26100 nM | IC50 [31]: 30800 nM
SMILES: CCn1c(SCC(=O)NNC(=O)c2ccccc2)nc2ccc([N+](=O)[O-])cc2c1=O

IC50 [21]: 220 nM
SMILES: CCc1ccc(NC(=O)c2ccc(NC(=O)CN3C(=O)S/C(=C/c4ccccc4)C3=O)cc2)cc1

IC50 [21]: 250 nM
SMILES: Cc1ccc(NC(=O)c2ccc(NC(=O)CN3C(=O)S/C(=C/c4ccccc4)C3=O)cc2)cc1

— ChEMBL document CHEMBL5376014, “Role of heterocycles in inhibition of VEGFR-2 - a recent update (2019-2022)” (RSC Med Chem, 2024)
